For 21 compounds, EC50 and melting point results are on record in patent US20030176390A1, “Methods of treating insulin resistance syndrome and diabetes” (priority 2001, published 2003).

One data set has as its system rat adipocytes. The data set is described as follows: In vitro lipolysis assay (antilipolytic activity in rat adipocytes). Type of data set: cell-based. To be noted: norepinephrine-stimulated lipolysis, glycerol assayed, 60 min, read-out: Lipo ec50. Here is the method:
Determination of Antilipolytic Activity in Rat Adipocytes
Isolation of Adipocytes from Epididymal Fat Pads
Adipose tissue is removed from anesthetized rats and rinsed twice in incubation medium (2.09 g sodium bicarbonate and 0.04 g EDTA, disodium salt, in 1 L Krebs buffer). Each rat (300-350 g) yields approximately 4 mL of adipose tissue. The adipose tissue (35 mL) is cut into small pieces with scissors and washed with incubation medium (50 mL). The mixture is poured into the barrel of a 50 mL syringe to which is attached a short piece of clamped tubing instead of a needle. The aqueous phase is allowed to drain. A second wash with incubation medium is passed through the syringe. The tissue is added to 50 mL of collagenase solution (collagenase (90 mg), bovine serum albumin (BSA) (500 mg), and 0.1 M calcium chloride solution (1 mL), in incubation medium (50 mL)) in a 1 L bottle. The mixture is shaken in an environmental at 37° C. for about 60 minutes under an atmosphere of 95% oxygen/5% carbon dioxide to effect digestion of the tissue. The dispersed cells are poured through 2 layers of cheese cloth into a 100 mL plastic beaker. The undigested clumps in the cloth are rinsed once with incubation medium (20 mL). The cells in the beaker are centrifuged in 2 plastic tubes for 30 seconds at room temperature at 300 rpm. The aqueous phase is aspirated from beneath the loosely packed layer of floating fat cells and discarded. The adipocytes are gently poured into a 250 mL plastic beaker containing 100 mL of rinse solution (1 g BSA per 100 mL incubation medium). After gentle stirring the centrifugation step is repeated. Another wash with rinse solution follows. The cells are pooled and their volume is estimated with a graduated cylinder. The adipocytes are diluted in twice their volume of assay buffer (incubation medium (120 mL), BSA (1.2 g), pyruvic acid (13 mg)).
The assay is performed in 20 mL plastic scintillation vials and the total assay volume is 4.2 mL. Assay buffer (2.5 mL), diluted adipocytes (1.5 mL), and a solution of the compound to be tested (12.3 μL) adenosine agonist (12.3 μl; varying concentration) is incubated in the environmental shaker for 15 minutes, then the reaction is started with norepinephrine solution (41.2 μL) (10 nM, in a carrier solution containing water (100 mL), BSA (4 mg), and 0.1 M EDTA (20 μL))and adenosine deaminase (1 μg/mL, 41.2 μl). After sixty minutes in the shaker the reaction is terminated by putting the vials on ice. […] The hard lipid layer is removed by aspiration and the aqueous layer is assayed for glycerol (400 μl of sample). The positive control is done in the absence of any adenosine agonist, substituting water in place of the solution to be tested.

Setting [1] is: Rattus norvegicus, Adipocyte, 1 h.

The structures appear in SMILES notation. Like-named read-outs stand apart in the source and are kept apart here.

`OC[C@H]1C[C@@H](n2cnc3c(N[C@H]4CCN(c5ccc(C(F)(F)F)cc5)C4)ncnc32)[C@H](O)[C@@H]1O` [Example 5, (1R,2S,3R,5R)-3-[6-[1-(4-trifluoromethylphenyl)-pyrrolidin-3(S)-ylamino]-purin-9-yl]-5-hydroxymethylcyclopentane-1,2-diol] displayed a melting point of 111 to 114 °C. In addition, the concentration giving a half-maximal response (EC50) in the data set with rat adipocytes (setting [1]) came out at 2 nM.

As for `O=[N+]([O-])c1ccc(N2CCC(Nc3ncnc4c3ncn4[C@@H]3C[C@H](CO)[C@@H](O)[C@H]3O)C2)cc1` (stereo partly drawn) [Example 7, (1R,2S,3R,5R)-5-hydroxymethyl-3-[6-[1-(4-nitrophenyl)pyrrolidin-3-ylamino]-purin-9-yl]cyclopentane-1,2-diol], the EC50 in the data set on rat adipocytes (setting [1]) came to 2.82 nM.

Take `OC[C@H]1O[C@@H](n2cnc3c(N[C@H]4CCN(c5ccc(-c6cccs6)cn5)C4)ncnc32)[C@H](O)[C@@H]1O` [Example 18, (2R,3R,4S,5R)-5-hydroxymethyl-2-[6-[1-(5-thiophen-2-ylpyridin-2-yl)-pyrrolidin-3(S)-ylamino]-purin-9-yl]tetrahydrofuran-3,4-diol]: the EC50 with rat adipocytes (setting [1]) was 2.24 nM.

In turn, `COc1cc(N2CC[C@H](Nc3ncnc4c3ncn4[C@@H]3O[C@H](CO)[C@@H](O)[C@H]3O)C2)ncn1` [Example 20, (2R,3R,4S,5R)-5-hydroxymethyl-2-[6-[1-(6-methoxypyrimidin-4-yl)pyrrolidin-3(S)-ylamino]-purin-9-yl]tetrahydrofuran-3,4-diol] registered a melting point of 251 to 253 °C. Besides, the half-maximal effective concentration (EC50) in the data set with rat adipocytes (setting [1]) came to 1.37 nM.

In the case of `OC[C@H]1O[C@@H](n2cnc3c(N[C@H]4CCN(c5cc(Cl)ncn5)C4)ncnc32)[C@H](O)[C@@H]1O` [Example 21, (2R,3R,4S,5R)-5-hydroxymethyl-2-[6-[1-(6-chloropyrimidin-4-yl)pyrrolidin-3(S)-ylamino]-purin-9-yl]-tetrahydrofuran-3,4-diol], the EC50 with rat adipocytes (setting [1]) came to 2.43 nM.

`OC[C@H]1O[C@@H](n2cnc3c(NC4CCN(c5ccc(Cl)nn5)C4)ncnc32)[C@H](O)[C@@H]1O` (stereo partly drawn) [Example 22, (2R,3R,4S,5R)-5-hydroxymethyl-2-[6-[1-(6-chloropyridazin-3-yl)pyrrolidin-3-ylamino]-purin-9-yl]-tetrahydrofuran-3,4-diol]: the melting point is 130 °C (dec.). In addition, the 50% effective concentration (EC50) in the data set with rat adipocytes (setting [1]) was determined as 3.07 nM.

Regarding `Cl.Cl.OC[C@H]1C[C@@H](n2cnc3c(N[C@H]4CCNC4)ncnc32)[C@H](O)[C@@H]1O` [Example 26, (1R,2S,3R,5R)-5-hydroxymethyl-3-[6-((3S)-pyrrolidin-3-ylamino)-purin-9-yl]cyclopentane-1,2-diol dihydrochloride], the melting point was 160 °C (dec.). Besides, the EC50 in the data set on rat adipocytes (setting [1]) is 178 nM.

`OC[C@H]1C[C@@H](n2cnc3c(N[C@H]4CCN(c5ccc(C(F)(F)F)cn5)C4)ncnc32)[C@H](O)[C@@H]1O` [Example 29, (1R,2S,3R,5R)-5-hydroxymethyl-3-[6-[1-(5-trifluoromethylpyridin-2-yl)pyrrolidin-3(S)-ylamino]-purin-9-yl]cyclopentane-1,2-diol] came in with a melting point of 110 to 111 °C. Also, the half-maximal effective concentration (EC50) in the data set on rat adipocytes (setting [1]) was determined as 3.57 nM.

`C[C@H]1C[C@@H](n2cnc3c(N[C@H]4CCN(c5ccc(C(F)(F)F)cn5)C4)ncnc32)[C@H](O)[C@@H]1O` [Example 31, (1R,2S,3R,5S)-5-methyl-3-[6-[1-(5-trifluoromethylpyridin-2-yl)pyrrolidin-3(S)-ylamino]-purin-9-yl]cyclopentane-1,2-diol] displayed a melting point of 114 to 116 °C. Besides, in the data set with rat adipocytes (setting [1]), the EC50 stood at 247 nM.

The compound `OC[C@H]1C[C@@H](n2cnc3c(N[C@H]4CCN(c5ccc(Br)cn5)C4)ncnc32)[C@H](O)[C@@H]1O` [Example 32, (1R,2S,3R,5R)-3-[6-[1-(5-bromopyridin-2-yl)pyrrolidin-3(S)-ylamino]-purin-9-yl]-5-hydroxymethylcyclopentane-1,2-diol] yielded a melting point of 169 to 171 °C. In addition, the EC50 in the data set with rat adipocytes (setting [1]) was 8 nM.

Take `OC[C@H]1C[C@@H](n2cnc3c(N[C@H]4CCN(c5ccc(Cl)cn5)C4)ncnc32)[C@H](O)[C@@H]1O` [Example 33, (1R,2S,3R,5R)-3-[6-[1-(5-chloropyridin-2-yl)pyrrolidin-3(S)-ylamino]-purin-9-yl]-5-hydroxymethylcyclopentane-1,2-diol]: the melting point lay within 118 to 121 °C. For the same compound, the EC50 in the data set with rat adipocytes (setting [1]) worked out at 4.2 nM.

Take `OC[C@H]1C[C@@H](n2cnc3c(N[C@H]4CCN(c5cc(C(F)(F)F)ccn5)C4)ncnc32)[C@H](O)[C@@H]1O` [Example 34, (1R,2S,3R,5R)-5-hydroxymethyl-3-[6-[1-(4-trifluoromethylpyridin-2-yl)pyrrolidin-3(S)-ylamino]-purin-9-yl]cyclopentane-1,2-diol]: the melting point lay within 135 to 137 °C. Besides, the EC50 in the data set on rat adipocytes (setting [1]) came out at 3.3 nM.

Consider `OC[C@H]1C[C@@H](n2cnc3c(N[C@H]4CCN(c5ccccn5)C4)ncnc32)[C@H](O)[C@@H]1O` [Example 35, (1R,2S,3R,5R)-5-hydroxymethyl-3-[6-[1-(pyridin-2-yl)pyrrolidin-3(S)-ylamino]-purin-9-yl]cyclopentane-1,2-diol], for which the melting point was in the range of 110 to 112 °C. In addition, the EC50 with rat adipocytes (setting [1]) is 48 nM.

As for `O=[N+]([O-])c1ccc(N2CC[C@H](Nc3ncnc4c3ncn4[C@@H]3C[C@H](CO)[C@@H](O)[C@H]3O)C2)cc1` [Example 37, (1R,2S,3R,5R)-5-hydroxymethyl-3-[6-[1-(4-nitrophenyl)-pyrrolidin-3(S)-ylamino]-purin-9-yl]cyclopentane-1,2-diol], in the data set with rat adipocytes (setting [1]), the concentration for a half-maximal effect (EC50) worked out at 2.8 nM.

Regarding `OC[C@H]1C[C@@H](n2cnc3c(N[C@H]4CCN(c5cc(C(F)(F)F)c(C(F)(F)F)cn5)C4)ncnc32)[C@H](O)[C@@H]1O` [Example 38, (1R,2S,3R,5R)-3-[6-[1-(4,5-bistrifluorpyridin-2-yl)pyrrolidin-3(S)-ylamino]-purin-9-yl]-5-hydroxymethylcyclopentane-1,2-diol], the 50% effective concentration (EC50) with rat adipocytes is 114 nM.

The compound `OC[C@H]1C[C@@H](n2cnc3c(N[C@H]4CCN(c5ccccc5)C4)ncnc32)[C@H](O)[C@@H]1O` [Example 39, (1R,2S,3R,5R)-5-hydroxymethyl-3-[6-[1-(phenyl)-pyrrolidin-3(S)-ylamino]-purin-9-yl]cyclopentane-1,2-diol] yielded a melting point of 97 to 99 °C. The EC50 with rat adipocytes (setting [1]) turned out to be 17.6 nM.

`OC[C@H]1C[C@@H](n2cnc3c(N[C@H]4CCN(c5ccc6cc(Br)ccc6n5)C4)ncnc32)[C@H](O)[C@@H]1O` [Example 42, (1R,2S,3R,5R)-3-[6-[1-(6-bromoquinolin-2-yl)pyrrolidin-3(S)-ylamino]-purin-9-yl]-5-hydroxymethylcyclopentane-1,2-diol]: the concentration for a half-maximal effect (EC50) in the data set with rat adipocytes (setting [1]) came to 30 nM.

`COC[C@H]1C[C@@H](n2cnc3c(N[C@H]4CCN(c5cc(Cl)ncn5)C4)ncnc32)[C@H](O)[C@@H]1O` [Example 46, (1R,2S,3R,5R)-3-[6-[1-(6-chloropyrimidin-4-yl)pyrrolidin-3(S)-ylamino]-purin-9-yl]-5-methoxymethylcyclopentane-1,2-diol]: in the data set on rat adipocytes (setting [1]), the EC50 is 92.5 nM.

In the case of `OC[C@H]1C[C@@H](n2cnc3c(N[C@H]4CCN(c5ccc(Cl)nn5)C4)ncnc32)[C@H](O)[C@@H]1O` [Example 47, (1R,2S,3R,5R)-3-[6-[1-(6-chloropyridazin-3-yl)pyrrolidin-3(S)-ylamino]-purin-9-yl]-5-hydroxymethylcyclopentane-1,2-diol], the concentration for a half-maximal effect (EC50) with rat adipocytes (setting [1]) was 129 nM.

For the compound `CC(C)OC[C@H]1C[C@@H](n2cnc3c(N[C@H]4CCN(c5cc(C(F)(F)F)ccn5)C4)ncnc32)[C@H](O)[C@@H]1O` [Example 50, (1R,2S,3R,5R)-5-isopropoxymethyl-3-[6-[1-(4-trifluoromethylpyridin2-yl)pyrrolidin-3(S)-ylamino]-purin-9-yl]cyclopentane-1,2-diol], in the data set on rat adipocytes (setting [1]), the EC50 turned out to be 365 nM.

On to `COC[C@H]1C[C@@H](n2cnc3c(N[C@H]4CCN(c5ccc(Cl)cn5)C4)ncnc32)[C@H](O)[C@@H]1O` [Example 53, (1R,2S,3R,5R)-3-[6-[1-(5-chlorpyridin-2-yl)pyrrolidin-3(S)-ylamino]-purin-9-yl]-5-methoxymethylcyclopentane-1,2-diol], for which, in the data set with rat adipocytes, the 50% effective concentration (EC50) worked out at 18.6 nM.
